Laboratory results as given in patent US20250339569A1, “CARBONIC ANHYDRASE IX LIGANDS” (priority 2021, published 2025).
Starred links: 1 amine or outer side, 2 acyl side, 3 side chain; linkers in the order of their positions; H or OH if unused. Positions of bridges follow the written chain, without caps; N, C: chain ends. Non-standard residues stand in square brackets, D forms with d. Residues, ends and D or L forms follow the SMILES beside them. *: point of attachment. X25 = CC(=O)N[C@H](CCC(=O)O)C(=O)Nc1cccc(C[C@@H](N[*:1])C(=O)[*:2])c1; X35 = CC(=O)N[C@@H](CCC(=O)Nc1cccc(C[C@H](N[*:1])C(=O)[*:2])c1)C(=O)O; X32 = CC(=O)N[C@H](CC(=O)O)C(=O)Nc1cccc(C[C@@H](N[*:1])C(=O)[*:2])c1; X33 = CC(=O)N[C@@H](CC(=O)Nc1cccc(C[C@H](N[*:1])C(=O)[*:2])c1)C(=O)O; X9 = O=C(CC1NC(=O)NC1=O)Nc1cccc(C[C@H](N[*:1])C(=O)[*:2])c1; DOTA = O=C(O)CN1CCN(CC(=O)O)CCN(CC(=O)*)CCN(CC(=O)O)CC1; X15 = O=C(O)COCC(=O)Nc1cccc(C[C@H](N[*:1])C(=O)[*:2])c1; X6 = O=C(O)CCC(=O)Nc1cccc(C[C@H](N[*:1])C(=O)[*:2])c1; Benzoyl(4-SO2NH2) = NS(=O)(=O)c1ccc(C(=O)*)cc1; X7 = O=C([C@H](Cc1cccc(N[*:3])c1)N[*:1])[*:2]; Phe(4-NH2) = Nc1ccc(C[C@H](N)C(=O)O)cc1; mXylylene = c1cc(C[*:1])cc(C[*:2])c1; NH(4-Cl-benzyl) = Clc1ccc(CN*)cc1; X13 = O=C1NC2NC(=O)N(CC(=O)*)C2N1; X2 = O=C(CN1CCC(N[*:1])CC1)[*:2]; Suc = O=C(CCC(=O)[*:2])[*:1]; X29 = c1cc2cn[nH]c2cc1CN*; Dap = NC[C@H](N)C(=O)O

Tests used:
[1] = target: T1, CAIX-expressing human HT-29 colorectal cancer cells (Homo sapiens, UniProt Q16790); assay: FACS binding assay (IC50 determination, competition with tracer 3BP-2776 or 3BP-4149); conditions: FACS binding assay, HT-29 cells, competition with tracer 3BP-4149 (3 nM, Cy5-labeled), 4° C., 1 hour; read-out: pIC50 category (activity) (converted)
T1 construct: CAIX-expressing human HT-29 colorectal cancer cells; host or cells: HT-29 human colorectal cancer cells
Outline: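 HT-29 cells in FACS buffer (PBS, 1% FCS) at 500.000 cells/ml were exposed to compounds competing with a labelled tracer, with biotinylated compounds detected by 1 μg/mL APC-streptavidin for 30 min on ice. APC/Cy5 median fluorescence was read by flow cytometry and IC50 derived by 4PL fit.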

[2] = target: T2, human carbonic anhydrase IX (hCAIX-Fc) (Homo sapiens, UniProt Q16790); assay: Surface plasmon resonance assay with hCAIX-Fc; format: binding; conditions: 25° C.; for t1/2 category (activity): SPR dissociation half-life, hCAIX-Fc; for Kd: SPR, hCAIX-Fc captured, read-out: pKD category (activity) (converted)
T2 construct: purchased SinoBliological (Sino Biological) 10107-H02H

Structure (SMILES)	IC50 [1] [nM]	t1/2 category (activity) [2]	Kd [2] [nM]
CC(C)C[C@@H]1NC(=O)[C@H](Cc2c[nH]c3ccccc23)NC(=O)[C@H](CCC(=O)NCc2ccc(Cl)cc2)NC(=O)[C@H]2CCCN2C(=O)[C@H](CCC(=O)O)NC(=O)[C@@H](NC(=O)[C@H](Cc2ccc(O)cc2)NC(=O)[C@@H](NC(=O)CN2CCC(NC(=O)CN3CCN(CC(=O)O)CCN(CC(=O)O)CCN(CC(=O)O)CC3)CC2)C(C)C)CSCc2cccc(c2)CSC[C@@H](C(N)=O)NC(=O)[C@H](CO)NC(=O)[C@H](Cc2c[nH]c3ccccc23)NC(=O)[C@H]([C@@H](C)O)NC1=O [3BP-4334] ({DOTA}-[X2]VYCE[dP]E(NH(4-Cl-benzyl))WLTWSC-NH2; linker 4-13 via mXylylene)	10 to 79.4	A (t1/2>15.0 minutes)	< 10
CC(C)C[C@@H]1NC(=O)[C@H](Cc2cccc(NC(=O)CN3C(=O)NC4NC(=O)NC43)c2)NC(=O)[C@H](CC(=O)O)NC(=O)[C@H]2CCCN2C(=O)[C@H](CCC(=O)O)NC(=O)[C@@H](NC(=O)[C@H](Cc2ccc(O)cc2)NC(=O)[C@@H](NC(=O)CN2CCC(NC(=O)CN3CCN(CC(=O)O)CCN(CC(=O)O)CCN(CC(=O)O)CC3)CC2)C(C)C)CSCc2cccc(c2)CSC[C@@H](C(N)=O)NC(=O)[C@H](CO)NC(=O)[C@H](Cc2c[nH]c3ccccc23)NC(=O)[C@H]([C@@H](C)O)NC1=O (stereo partly drawn) [3BP-4341] ({DOTA}-[X2]VYCE[dP]D[X7](X13)LTWSC-NH2; linker 4-13 via mXylylene)	10 to 79.4	C (t1/2 between 2.1 and 5.0 minutes)	< 10
CC(C)C[C@@H]1NC(=O)[C@H](Cc2ccc(NC(=O)CCC(=O)O)cc2)NC(=O)[C@H](CC(=O)O)NC(=O)[C@H]2CCCN2C(=O)[C@H](CCC(=O)O)NC(=O)[C@@H](NC(=O)[C@H](Cc2ccc(O)cc2)NC(=O)[C@@H](NC(=O)CN2CCC(NC(=O)CN3CCN(CC(=O)O)CCN(CC(=O)O)CCN(CC(=O)O)CC3)CC2)C(C)C)CSCc2cccc(c2)CSC[C@@H](C(N)=O)NC(=O)[C@H](CO)NC(=O)[C@H](Cc2c[nH]c3ccccc23)NC(=O)[C@H]([C@@H](C)O)NC1=O [3BP-4356] ({DOTA}-[X2]VYCE[dP]D[Phe(4-NH2)](Suc)LTWSC-NH2; linker 4-13 via mXylylene)	10 to 79.4	D (t1/2≤2.0 minutes)	10 to 79.4
CC(=O)N[C@@H](CCC(=O)Nc1cccc(C[C@@H]2NC(=O)[C@H](CC(=O)O)NC(=O)[C@H]3CCCN3C(=O)[C@H](CCC(=O)O)NC(=O)[C@@H](NC(=O)[C@H](Cc3ccc(O)cc3)NC(=O)[C@@H](NC(=O)CN3CCC(NC(=O)CN4CCN(CC(=O)O)CCN(CC(=O)O)CCN(CC(=O)O)CC4)CC3)C(C)C)CSCc3cccc(c3)CSC[C@@H](C(N)=O)NC(=O)[C@H](CO)NC(=O)[C@H](Cc3c[nH]c4ccccc34)NC(=O)[C@H]([C@@H](C)O)NC(=O)[C@H](CC(C)C)NC2=O)c1)C(=O)O [3BP-4361] ({DOTA}-[X2]VYCE[dP]D[X35]LTWSC-NH2; linker 4-13 via mXylylene)	10 to 79.4	A (t1/2>15.0 minutes)	< 10
CC(=O)N[C@H](CCC(=O)O)C(=O)Nc1cccc(C[C@H]2NC(=O)[C@H](CC(=O)O)NC(=O)[C@H]3CCCN3C(=O)[C@H](CCC(=O)O)NC(=O)[C@@H](NC(=O)[C@H](Cc3ccc(O)cc3)NC(=O)[C@@H](NC(=O)CN3CCC(NC(=O)CN4CCN(CC(=O)O)CCN(CC(=O)O)CCN(CC(=O)O)CC4)CC3)C(C)C)CSCc3cccc(c3)CSC[C@@H](C(N)=O)NC(=O)[C@H](CO)NC(=O)[C@H](Cc3c[nH]c4ccccc34)NC(=O)[C@H]([C@@H](C)O)NC(=O)[C@H](CC(C)C)NC2=O)c1 [3BP-4362] ({DOTA}-[X2]VYCE[dP]D[X25]LTWSC-NH2; linker 4-13 via mXylylene)	10 to 79.4	B (t1/2 between 5.1 and 15.0 minutes)	< 10
CC(=O)N[C@@H](CC(=O)Nc1cccc(C[C@@H]2NC(=O)[C@H](CC(=O)O)NC(=O)[C@H]3CCCN3C(=O)[C@H](CCC(=O)O)NC(=O)[C@@H](NC(=O)[C@H](Cc3ccc(O)cc3)NC(=O)[C@@H](NC(=O)CN3CCC(NC(=O)CN4CCN(CC(=O)O)CCN(CC(=O)O)CCN(CC(=O)O)CC4)CC3)C(C)C)CSCc3cccc(c3)CSC[C@@H](C(N)=O)NC(=O)[C@H](CO)NC(=O)[C@H](Cc3c[nH]c4ccccc34)NC(=O)[C@H]([C@@H](C)O)NC(=O)[C@H](CC(C)C)NC2=O)c1)C(=O)O [3BP-4363] ({DOTA}-[X2]VYCE[dP]D[X33]LTWSC-NH2; linker 4-13 via mXylylene)	10 to 79.4	B (t1/2 between 5.1 and 15.0 minutes)	< 10
CC(=O)N[C@H](CC(=O)O)C(=O)Nc1cccc(C[C@H]2NC(=O)[C@H](CC(=O)O)NC(=O)[C@H]3CCCN3C(=O)[C@H](CCC(=O)O)NC(=O)[C@@H](NC(=O)[C@H](Cc3ccc(O)cc3)NC(=O)[C@@H](NC(=O)CN3CCC(NC(=O)CN4CCN(CC(=O)O)CCN(CC(=O)O)CCN(CC(=O)O)CC4)CC3)C(C)C)CSCc3cccc(c3)CSC[C@@H](C(N)=O)NC(=O)[C@H](CO)NC(=O)[C@H](Cc3c[nH]c4ccccc34)NC(=O)[C@H]([C@@H](C)O)NC(=O)[C@H](CC(C)C)NC2=O)c1 [3BP-4364] ({DOTA}-[X2]VYCE[dP]D[X32]LTWSC-NH2; linker 4-13 via mXylylene)	10 to 79.4	B (t1/2 between 5.1 and 15.0 minutes)	< 10
CC(C)C[C@@H]1NC(=O)[C@H](Cc2cccc(NC(=O)COCC(=O)O)c2)NC(=O)[C@H](CC(=O)O)NC(=O)[C@H]2CCCN2C(=O)[C@H](CCC(=O)O)NC(=O)[C@@H](NC(=O)[C@H](Cc2ccc(O)cc2)NC(=O)[C@@H](NC(=O)CN2CCC(NC(=O)CN3CCN(CC(=O)O)CCN(CC(=O)O)CCN(CC(=O)O)CC3)CC2)C(C)C)CSCc2cccc(c2)CSC[C@@H](C(N)=O)NC(=O)[C@H](CO)NC(=O)[C@H](Cc2c[nH]c3ccccc23)NC(=O)[C@H]([C@@H](C)O)NC1=O [3BP-4368] ({DOTA}-[X2]VYCE[dP]D[X15]LTWSC-NH2; linker 4-13 via mXylylene)	10 to 79.4	C (t1/2 between 2.1 and 5.0 minutes)	< 10
CC(C)C[C@@H]1NC(=O)[C@H](Cc2cccc(NC(=O)CC3NC(=O)NC3=O)c2)NC(=O)[C@H](CC(=O)O)NC(=O)[C@H]2CCCN2C(=O)[C@H](CCC(=O)O)NC(=O)[C@@H](NC(=O)[C@H](Cc2ccc(O)cc2)NC(=O)[C@@H](NC(=O)CN2CCC(NC(=O)CN3CCN(CC(=O)O)CCN(CC(=O)O)CCN(CC(=O)O)CC3)CC2)C(C)C)CSCc2cccc(c2)CSC[C@@H](C(N)=O)NC(=O)[C@H](CO)NC(=O)[C@H](Cc2c[nH]c3ccccc23)NC(=O)[C@H]([C@@H](C)O)NC1=O (stereo partly drawn) [3BP-4371] ({DOTA}-[X2]VYCE[dP]D[X9]LTWSC-NH2; linker 4-13 via mXylylene)	10 to 79.4	C (t1/2 between 2.1 and 5.0 minutes)	< 10
CC(C)C[C@@H]1NC(=O)[C@H](Cc2cccc(NC(=O)CCC(=O)O)c2)NC(=O)[C@H](CC(=O)O)NC(=O)[C@H]2CCCN2C(=O)[C@H](CCC(=O)O)NC(=O)[C@@H]2CSCc3cccc(c3)CSC[C@@H](C(N)=O)NC(=O)[C@H](CNC(=O)C[C@H](NC(=O)[C@@H](NC(=O)CN3CCC(NC(=O)CN4CCN(CC(=O)O)CCN(CC(=O)O)CCN(CC(=O)O)CC4)CC3)C(C)C)C(=O)N2)NC(=O)[C@H](Cc2c[nH]c3ccccc23)NC(=O)[C@H]([C@@H](C)O)NC1=O [3BP-4377] ({DOTA}-[X2]VDCE[dP]D[X6]LTW[Dap]C-NH2; lactam 3-12; linker 4-13 via mXylylene)	< 10	A (t1/2>15.0 minutes)	< 10
CC(C)C[C@@H]1NC(=O)[C@H](Cc2c[nH]c3ccccc23)NC(=O)[C@H](CCC(=O)NCc2ccc3cn[nH]c3c2)NC(=O)[C@H]2CCCN2C(=O)[C@H](CCC(=O)O)NC(=O)[C@@H](NC(=O)[C@H](Cc2ccc(O)cc2)NC(=O)[C@@H](NC(=O)CN2CCC(NC(=O)CN3CCN(CC(=O)O)CCN(CC(=O)O)CCN(CC(=O)O)CC3)CC2)C(C)C)CSCc2cccc(c2)CSC[C@@H](C(N)=O)NC(=O)[C@H](CO)NC(=O)[C@H](Cc2c[nH]c3ccccc23)NC(=O)[C@H]([C@@H](C)O)NC1=O [3BP-4387] ({DOTA}-[X2]VYCE[dP]E(X29)WLTWSC-NH2; linker 4-13 via mXylylene)	10 to 79.4	A (t1/2>15.0 minutes)	< 10
CC(C)C[C@@H]1NC(=O)[C@H](Cc2ccc(NC(=O)c3ccc(S(N)(=O)=O)cc3)cc2)NC(=O)[C@H](CC(=O)O)NC(=O)[C@H]2CCCN2C(=O)[C@H](CCC(=O)O)NC(=O)[C@@H](NC(=O)[C@H](Cc2ccc(O)cc2)NC(=O)[C@@H](NC(=O)CN2CCC(NC(=O)CN3CCN(CC(=O)O)CCN(CC(=O)O)CCN(CC(=O)O)CC3)CC2)C(C)C)CSCc2cccc(c2)CSC[C@@H](C(N)=O)NC(=O)[C@H](CO)NC(=O)[C@H](Cc2c[nH]c3ccccc23)NC(=O)[C@H]([C@@H](C)O)NC1=O [3BP-4398] ({DOTA}-[X2]VYCE[dP]D[Phe(4-NH2)](Benzoyl(4-SO2NH2))LTWSC-NH2; linker 4-13 via mXylylene)	10 to 79.4	C (t1/2 between 2.1 and 5.0 minutes)	< 10
